In patent publication US4505897A, “Cyclic pentapeptides displaying somatostatin antagonism and method of treatment of mammals therewith” (The Administrators of the Tulane Educational Fund, priority 1983, dated 1985):
Non-standard residues stand in square brackets, D forms with d. Residues, ends and D or L forms follow the SMILES beside them. *: point of attachment. Bn = c1ccc(C*)cc1

Experiments:
[1] = system: plasma GH levels; experiment: Peptide effects on NEMBUTAL-stimulated GH levels in anesthetized rats (sc bolus, jugular blood, RIA); format: in vivo, rat
Description: (§1) In this evaluation, the procedures described by W. A. Murphy et al., Endocrinology, 109:491-495 (1980), were employed.
In growth hormone (GH) experiments, male rats (Charles Rivers) were anesthetized with NEMBUTAL® (5 mg per 100 g/BW) which also served to maintain stimulated plasma GH levels. Exactly 30 minutes after the rats were anesthetized, 0.5 ml of saline or the test peptide in saline was administered as a sc bolus. A 1 ml blood sample was drawn from the jugular vein 15 minutes after the injection. For examining blocking effects of the analog on somatostatin, the cyclic peptide was given five minutes prior to somatostatin. GH levels were determined using NIADDKD rat GH RIA components.

[2] = system: somatostatin; experiment: Somatostatin antagonist activity (blocking of exogenous somatostatin effects); format: in vivo, rats; conditions: result in words
[3] = system: insulin release; experiment: Basal hepatic portal insulin levels in fasted rats; format: in vivo, rat; conditions: after treatment, result in words
Excerpt: as §1

[4] = system: glucagon release; experiment: Basal hepatic portal glucagon levels in fasted rats; format: in vivo, rat; conditions: after treatment, result in words
Excerpt: as §1

SMILES	GH (ng/ml) ([1]; first experiment, dose 2 μg/100 g body weight sc, saline 389 ± 60)	GH ([1]; first experiment, dose 10 μg/100 g body weight sc, saline 389 ± 60)	GH ([1]; second experiment, dose 0.3 μg/100 g body weight sc, saline 648 ± 177)	GH ([1]; second experiment, dose 0.3 μg/100 g body weight sc, saline 648 ± 177, listed as cyclo(Pro-Phe-D-Trp-Lys-Thr))	GH ([1]; second experiment, dose 0.6 μg/100 g body weight sc, saline 648 ± 177)	GH ([1]; second experiment, dose 1.2 μg/100 g body weight sc, saline 648 ± 177)	somatostatin antagonist activity [2]	basal hepatic portal insulin levels [3]	basal hepatic portal glucagon levels [4]	plasma growth hormone levels ([1]; NEMBUTAL-anesthetized and stimulated rats, after injection, result in words)	GH ([1]; third experiment, dose 0.2 μg/100 g body weight sc, saline 497 ± 80)	GH ([1]; third experiment, dose 0.2 μg/100 g body weight sc, saline 497 ± 80, listed as cyclo[Pro-Phe-D-Trp-Lys-Thr(Bzl)])	GH ([1]; third experiment, dose 0.6 μg/100 g body weight sc, saline 497 ± 80)	GH ([1]; first experiment, dose 0.4 μg/100 g body weight sc, blood 15 min after injection, saline 389 ± 60)	GH ([1]; third experiment, dose 0.5 μg/100 g body weight sc, saline 497 ± 80)
C[C@@H](O)[C@@H]1NC(=O)[C@H](CCCCN)NC(=O)[C@@H](Cc2c[nH]c3ccccc23)NC(=O)[C@H](Cc2ccccc2)NC(=O)[C@@H]2CCCN2C1=O [Cyclo(Pro--Phe--D-Trp--Lys--Thr), cyclo(L-prolyl-L-phenylalanyl-D-tryptophyl-L-lysyl-L-threonyl)] (cyclo(F[dW]KTP))	730 + 110 ng/ml	459 ± 100 ng/mL	1265 ± 318 ng/mL	1265 ± 318 ng/mL	1072 ± 187 ng/mL	728 ± 143 ng/mL	has somatostatin antagonist activity	–	–	–	–	–	–	–	–
C[C@@H](OCc1ccccc1)[C@@H]1NC(=O)[C@H](CCCCN)NC(=O)[C@@H](Cc2c[nH]c3ccccc23)NC(=O)[C@H](Cc2ccccc2)NC(=O)[C@@H]2CCCN2C1=O [Cyclo[Pro--Phe--D-Trp--Lys--Thr(Bzl)], cyclo(L-prolyl-L-phenylalanyl-D-tryptophyl-L-lysyl-O-benzyl-L-threonyl)] (cyclo(F[dW]KT(Bn)P))	–	–	–	–	–	–	very effective somatostatin antagonist	significantly increased	significantly increased	increased	1724 ± 393 ng/mL	1724 ± 383 ng/mL	812 ± 163 ng/mL	–	–
C[C@H](N)C(=O)NCC(=O)N[C@H]1CSSC[C@@H](C(=O)O)NC(=O)[C@H](CO)NC(=O)[C@H]([C@@H](C)O)NC(=O)[C@H](Cc2ccccc2)NC(=O)[C@H]([C@@H](C)O)NC(=O)[C@H](CCCCN)NC(=O)[C@H](Cc2c[nH]c3ccccc23)NC(=O)[C@H](Cc2ccccc2)NC(=O)[C@H](Cc2ccccc2)NC(=O)[C@H](CC(N)=O)NC(=O)[C@H](CCCCN)NC1=O [Somatostatin, somatostatin]	–	–	–	–	–	–	–	–	–	–	–	–	–	152 ± 51 ng/mL	173 ± 46 ng/mL
